In patent publication US11040958B2, “Triazole antimicrobial derivative, pharmaceutical composition and use thereof” (priority 2017, dated 2021):

Key:
[1] = Solid stability test (25°C, RH 60%, 30 days); type: physicochemical; details: 25°C±2°C, relative humidity 60%±2%
[2] = Pharmacokinetics after single intravenous administration in rats (plasma voriconazole); details: both, SD, rat, in vivo, iv, 2.5 mg/kg
Method in brief: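 SD rats (180–220 g, 3 male/3 female per group) given single tail-vein dose of 2.5 mg/kg (as voriconazole). Plasma voriconazole measured in blood sampled at multiple time points post-dose.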

[3] = In vitro metabolic stability in rat plasma; type: in vitro ADME; details: rat, plasma; 37°C, compound 10 μM; read-out: Rat plasma T1/2
[4] = tested on: Candida albicans ATCC10231; assay: Systemic fungal infection in mice, administration by gavage, survival; type: in vivo; details: ICR mice, 5 mg/kg (calculated as voriconazole) once daily for 5 days
Method in brief: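 Male ICR mice (18-22 g) infected via tail vein with C. albicans ATCC10231 at 5*10^6/ml, 0.1 ml/10 g. Starting 2 h post-infection, 5 mg/kg (as voriconazole) given by gavage once daily for 5 days; saline for model group. Groups of 10; survival time recorded over 7 days.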

[5] = In vitro metabolic stability in human intestinal S9; type: in vitro ADME; details: human, intestinal S9; 37°C, S9 1 mg/mL, compound 10 μM, NADPH regeneration system; read-out: Human intestinal S9 T1/2
[6] = tested on: Candida albicans ATCC10231; assay: Systemic fungal infection in mice, intravenous administration, survival; type: in vivo; details: ICR mice, tail vein, 5 mg/kg (calculated as voriconazole) once daily for 5 days
Method in brief: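 Male ICR mice (18-22 g) infected via tail vein with C. albicans ATCC10231 at 5*10^6 cells/ml, 0.1 ml/10 g; groups of 10. From 2 h post-infection, 5 mg/kg (as voriconazole) given i.v. once daily for 5 days, saline vehicle (voriconazole in sulfobutyl ether-β-cyclodextrin); survival time recorded over 7 days.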

## CC(OC(=O)SCCO)[n+]1cnn(C[C@](O)(c2ccc(F)cc2F)[C@@H](C)c2ncncc2F)c1 (stereo partly drawn) [Compound 16037]
[1]
  Content increase of total impurity (25° C., placed for 30 days): 2.15%
[2]
  AUClast: 9120 ± 3254 ng·h/mL
  T1/2: 148 ± 45 min
[3]
  half-life at 10 µM: 7.65 ± 0.78 min
[4]; day 1
  survival rate of mice, day 1: 100%
[4]; day 2
  survival rate of mice, day 2: 100%
[4]; day 3
  survival rate of mice, day 3: 100%
[4]; day 4
  survival rate of mice, day 4: 100%
[4]; day 5
  survival rate of mice, day 5: 90%
[4]; day 6
  survival rate of mice, day 6: 80%
[4]; day 7
  survival rate of mice, day 7: 80%
[5]
  half-life at 10 µM: 10.8 ± 1.97 min
[6]; day 1
  survival rate of mice, day 1: 100%
[6]; day 2
  survival rate of mice, day 2: 100%
[6]; day 3
  survival rate of mice, day 3: 90%
[6]; day 4
  survival rate of mice, day 4: 90%
[6]; day 5
  survival rate of mice, day 5: 90%
[6]; day 6
  survival rate of mice, day 6: 80%
